# Patent publication US20230357334A1, “COMPOSITION OF DRUG AND WILD-TYPE CELL-PENETRATING PEPTIDE DERIVATIVE” (ALEPHOSON BIOPHARMACEUTICALS LTD., priority 2020, published 2023)
# Entries after “also recorded” stand apart in the source; their conditions may differ. Read-outs that look alike come from different tables or passages of the source.
# Key:
# HCECs [1] = assay: Endocytosis mechanism of 289WP/Ranibizumab composition (temperature, endocytosis inhibitors), HCECs; type: cell-based, human; details: Mixture without inhibition = 100%
# Procedure: (§1) The uptake amount of 289WP-FAM or Cy5-Rani in the Mixture without inhibition is used as control (100%). Significant differences were analyzed by 1-tailed ANOVA, corrected by Dunnett's test (n=3, ^nsp>0.05, *p<0.05, **p<0.01, ***p<0.001).
# ARPE-19 cells [2] = assay: Endocytosis mechanism of 289WP/Ranibizumab composition (temperature, endocytosis inhibitors), ARPE-19; type: cell-based, human; details: Mixture without inhibition = 100%
# Procedure: as §1
# ARPE-19 cells [3] = assay: Uptake of 89WP/nanoantibody compositions at different ratios, flow cytometry; type: cell-based, human; details: 89WP:nanoantibody molar ratio 5:1 to 50:1; 2 h
# Procedure: 89WP/nanoantibody eye drops were prepared according to the proportion in Table 5, and incubated overnight at 4° C. for later use.
# The ARPE-19 cells were plated in a 24-well plate and cultured for over 24 h. The culture solution was then discarded, and 200 μL of the drug solution and 300 μL of serum-free culture solution were added into each well. After 2 h of incubation, the drug solution was discarded, and the cells were washed 3 times with PBS, digested and resuspended in PBS. Flow cytometer was used for detecting Cy5 fluorescence signals (Ex: 645 nm, Em: 665 nm).
# [4] = tested on: HCECs, ARPE-19 and HUVECs; assay: Cell uptake of polypeptide/Ranibizumab compositions at different molar ratios; type: cell-based, human; details: 89WP:Ranibizumab molar ratio 5:1 to 18:1; 3 kinds of cells; 1 μM Cy5-Rani; 2 h, 37° C.
# Procedure: First, Ranibizumab was fluorescently labeled. […] After the addition of 0.12 mg fluorescence labeling reagent Sulfo-Cy5-NHS, the solution was stirred and reacted overnight under the condition of 4° C.
# Next, a polypeptide/Ranibizumab composition was prepared. Appropriate amount of polypeptide was weighed and dissolved by using a certain volume of commercially available Ranibizumab injection.
# (§2) Well-grown cells HCECs, ARPE-19 and HUVECs were taken and plated respectively in a 24-well plate at 1×10^4 cells/well. After incubating for 24 h, the culture solution was discarded, and solutions of different compositions of polypeptide/Cy5-Rani mixture (containing 1 μM of Cy5-Rani) were added and incubated for 2 h at 37° C. The drug solution was then discarded, and the cells were washed 3 times with 10 mM PBS (containing 0.02 mg/mL heparin sodium), collected, and resuspended in 10 mM PBS. Flow cytometer was used for detecting positive cell rate and mean fluorescence intensity, with detecting channel excitation wavelength of 638 nm and emission wavelength of 660 nm.
# Significance analysis was performed using One-Way ANOVA test, corrected by Tukey's test (n=3, ^nsp>0.05, *p<0.05, **p<0.01, ***p<0.001).
# HCECs [5] = assay: Cell uptake of Ranibizumab mediated by different polypeptides, HCECs; type: cell-based, human; details: for increase of mean fluorescence intensity compared with free antibodies: 10 μM polypeptide + 1 μM Cy5-Rani (10:1), freshly prepared, 2 h, 37° C.; for mean fluorescence intensity of cells, comparison between polypeptides: composition solutions stored at 4° C. for 7 days; for cell uptake of Ranibizumab mediated by polypeptide, comparison between polypeptides: molar ratio 10:1, freshly prepared
# Procedure: as §2, with “nm. […] 10 μM of different polypeptides were mixed with 1 μM Cy5-Rani, respectively, and incubated at 4° C. for 24 h to obtain composition solutions. Before the detection, the composition solutions were incubated at 37° C. with different cells for 2 h, or the composition solutions were stored at 4° C. for 7 days and then incubated with the cells. Flow cytometer was used for detecting the mean fluorescence intensity values of cells (Ex 638 nm/Em 660 nm).” for “nm.”
# ARPE-19 cells [6] = assay: Cell uptake of Ranibizumab mediated by different polypeptides, ARPE-19; type: cell-based, human; details: for increase of mean fluorescence intensity compared with free antibodies: 10 μM polypeptide + 1 μM Cy5-Rani (10:1), freshly prepared, 2 h, 37° C.; for mean fluorescence intensity of cells, comparison between polypeptides: composition solutions stored at 4° C. for 7 days; for cell uptake of Ranibizumab mediated by polypeptide, comparison between polypeptides: molar ratio 10:1, freshly prepared
# Procedure: as §2, with “nm. […] 10 μM of different polypeptides were mixed with 1 μM Cy5-Rani, respectively, and incubated at 4° C. for 24 h to obtain composition solutions. Before the detection, the composition solutions were incubated at 37° C. with different cells for 2 h, or the composition solutions were stored at 4° C. for 7 days and then incubated with the cells. Flow cytometer was used for detecting the mean fluorescence intensity values of cells (Ex 638 nm/Em 660 nm).” for “nm.”
# [7] = rabbit, in vivo
# Procedure: Firstly, eye drops were prepared. […] The compositions were stored at 4° C. for later use. Before being used, the compositions were incubated for at least 24 h at 4° C., and kept standing at room temperature for 1 h.
# Subsequently, the administration and tissue sampling protocol were determined. Healthy male rabbits each about 1 kg were selected, eyes of which were ensured to be normal by ophthalmic examination before the experiment. The experimental process follows the ethical specifications of experimental animals. […] Ocular tissue samples were taken at 1 h, 4 h, 8 h, 12 h and 24 h after the administration.
# The ELISA plate coated with antigen (hVEGF-A165) was prepared, as well as the extracted tissues (total protein extraction solution of blood plasma, aqueous humor, vitreous humor and retina).
# Significant differences were analyzed by 1-tailed ANOVA, corrected by Tukey's test (^nsp>0.05, *p<0.05, **p<0.01, compared to the Rani group).
# [8] = rabbit, in vivo; remark: listed apart in the source
# Procedure: Firstly, eye drops were prepared. Polypeptide/Aflibercept composition was prepared by diluting Aflibercept (40 mg/mL) to 20 mg/mL with a commercially available Aflibercept injection solvent, dissolving polypeptide 289WP to 6.16 mg/mL with this solution, and storing at 4° C. for use. Before being used, the composition was incubated for at least 24 h at 4° C., and kept standing at room temperature for 1 h.
# Next, the administration and sampling protocol were determined. Healthy male rabbits each about 1 kg were selected, eyes of which were ensured to be normal by ophthalmic examination before the experiment. The experimental process follows the ethical specifications of experimental animals. Each eye of the rabbit was dripped with 30 μL of different composition solutions containing 600 μg of Aflibercept per eye. Ocular tissue samples were taken at 1 h after administration.
# Subsequently, the Aflibercept concentrations in tissues were determined. The ELISA plate coated with antigen (hVEGF-A165) was prepared, as well as the extracted tissues (total protein extraction solution of blood plasma, aqueous humor, vitreous humor and retina). […]
# The concentrations of Aflibercept in tissues were measured at 1 h after administration. Significant differences were analyzed by 2-tailed unpaired t-test (^nsp>0.05, *p<0.05).
substance,measurement,setting,value
Cy5-Rani: Cy5-labeled Ranibizumab,cell uptake rate,HCECs [1]; Dynasore added,24.4%
same,cell uptake rate,HCECs [1]; at 4° C.,40.6%
same,cell uptake rate,HCECs [1]; chlorpromazine added,37.8%
same,cell uptake rate,HCECs [1]; hypertonic sucrose added,35.2%
same,cell uptake rate,ARPE-19 cells [2]; Dynasore added,31.4%
same,cell uptake rate,ARPE-19 cells [2]; at 4° C.,79.6%
same,cell uptake rate,ARPE-19 cells [2]; chlorpromazine added,63.0%
same,cell uptake rate,ARPE-19 cells [2]; hypertonic sucrose added,75.7%
"Q8W, N9W-Penetratin (RQIKIWFWWRRMKWKK) [89WP]",cell uptake of nanoantibody compared with nanoantibody alone,ARPE-19 cells [3],significantly promote
same,increase of 89WP-mediated uptake of antibody compared with free antibody,[4],2.2-6.7 times
"Q2W, Q8W, N9W-Penetratin (RWIKIWFWWRRMKWKK) [289WP]",increase of mean fluorescence intensity compared with free antibodies,HCECs [5],14.7 times
same,"mean fluorescence intensity of cells, comparison between polypeptides",HCECs [5],still the highest
same,"cell uptake of Ranibizumab mediated by polypeptide, comparison between polypeptides",HCECs [5],strongest capacity; also recorded: best effect
same,increase of mean fluorescence intensity compared with free antibodies,ARPE-19 cells [6],11.3 times
same,"mean fluorescence intensity of cells, comparison between polypeptides",ARPE-19 cells [6],still the highest
same,"cell uptake of Ranibizumab mediated by polypeptide, comparison between polypeptides",ARPE-19 cells [6],best effect
Ranibizumab,intraocular absorption after eye drop without penetratin derivative,[7],hardly absorbed
"Q2W, N9W-Penetratin (RWIKIWFQWRRMKWKK) [29WP]",increase of mean fluorescence intensity compared with free antibodies,HCECs [5],13.5 times
same,"mean fluorescence intensity of cells, comparison between polypeptides",HCECs [5],still the highest
same,"cell uptake of Ranibizumab mediated by polypeptide, comparison between polypeptides",HCECs [5],strongest capacity; also recorded: best effect
same,increase of mean fluorescence intensity compared with free antibodies,ARPE-19 cells [6],11.1 times
same,"mean fluorescence intensity of cells, comparison between polypeptides",ARPE-19 cells [6],still the highest
same,"cell uptake of Ranibizumab mediated by polypeptide, comparison between polypeptides",ARPE-19 cells [6],best effect
Aflibercept,intraocular absorption after eye drop without penetratin derivative,[8],hardly absorbed
